These are literature values, as cited in article PMC10140125 (Investigational New Drugs, 2023).

The series relates to recurrent malignant gliomas. More on the design: method as in PMID 20458050, PMID 20200024. Conditions: phase II studies, recurrent malignant gliomas ref 4, 22.

`COc1cc2c(Oc3ccc4[nH]c(C)cc4c3F)ncnc2cc1OCCCN1CCCC1` [cediranib]: the ORR is 56.7%.
With `Cc1ccc(Nc2nccc(N(C)c3ccc4c(C)n(C)nc4c3)n2)cc1S(N)(=O)=O` [pazopanib], the ORR was 5.9%.
